Results as given in patent US20080219977A1, “Combinations Comprising Gemcitabine and Tyrosine Kinase Inhibitors for the Treatment of Pancreatic Cancer” (priority 2005, published 2008).
Marks after values point to notes of the source that are not given here.

Legend:
[1] = tested on: EGF, VEGF, PDGF-BB, EGFR, VEGFR, and PDGFR; assay: IHC expression level of growth factors and receptors in L3.6pl pancreatic tumors; format: in vivo, human; conditions: IHC of pancreatic tumors from treated mice
Description: (§1) Immunohistochemical (IHC) Analysis to Detect EGF, VEGF, PDGF-BB, EGFR, VEGFR, PDGFRβ, pEGFR, pVEGFR, pPDGF-R in Pancreatic Tumors. Paraffin-embedded pancreatic tumors of mice from all treatment groups are immunostained to evaluate the expression of EGF, VEGF, PDGF-BB, EGFR, VEGFR, PDGFRβ, phosphorylated (p)EGFR, pVEGFR, and pPDGFRβ. The sections are deparaffinized in xylene, dehydrated with alcohol and rehydrated in PBS. Endogenous peroxidase is blocked with 3% hydrogen peroxide in PBS. Samples are exposed to protein block (5% normal horse serum, 1% normal goat serum in PBS) and incubated overnight at 4° C. with each primary antibody at the appropriate dilution. After 1 h incubation at room temperature with peroxidase-conjugated secondary antibody, positive reaction is detected by exposure to stable 3,3′-diaminobenzidine (DAB) (Phoenix Biotechnologies, Huntsville, Ala.). Slides are counterstained with Gill's #3 hematoxylin. Sections stained for immunoperoxidase or hematoxylin and eosin are examined in a microscope equipped with a three-chip-charged coupled device (CCD) color video camera. Digital images are captured using Optimas Image Analysis software (Media Cybernetics, Md.).

[2] = tested on: tumor-associated endothelial cells; assay: CD31/TUNEL fluorescent double labeling, apoptosis of tumor-associated endothelial cells; format: in vivo, nude mice; conditions: Median ± S.D.; ratio of apoptotic endothelial cells to total endothelial cells
Method: Double Immunofluorescence Staining for CD31/PECAM-1 and EGFR, pEGFR, VEGFR, pVEGFR, PDGFRβ, pPDGFRβ, Pericytes (desmin-positive cells), and TUNEL. Frozen sections of pancreatic tumors are mounted on slides and fixed. Immunofluorescence for CD31 is performed using Alexa594 conjugated secondary antibody, and samples are again blocked briefly in a blocking solution (5% normal horse serum and 1% normal goat serum in PBS) as described above and incubated with antibody against human EGFR, pEGFR, VEGFR, pVEGFR, PDGFRβ, pPDGFRβ, or desmin at 4° C. overnight. After washes and blocking with blocking solution, samples are incubated with Alexa488 conjugated secondary antibody. Endothelial cells are identified by red fluorescence, and EGF-R, pEGFR, VEGFR, pVEGFR, PDGFRβ, pPDGFRβ and desmin positive cells (pericytes) are identified by green fluorescence. The presence of growth factor receptors and phosphorylated receptors on endothelial cells are detected by colocalization of red and green fluorescence, which appeared yellow. TUNEL-positive apoptotic cells are detected by localized green fluorescence within cell nuclei, and endothelial cells are identified by red fluorescence. Apoptotic endothelial cells are identified by yellow fluorescence within the nuclei.

[3] = tested on: L3.6pl human pancreatic cancer cells; assay: Therapy of established L3.6pl human pancreatic carcinoma tumors growing in the pancreas of athymic nude mice (tumor weight); format: in vivo; conditions: for effect on tumor growth (in words): L3.6pl implanted in the pancreas of nude mice, each drug 50 mg/kg; for Tumor weight (g) Median: pancreatic tumor, AEE788 50 mg/kg oral 3x/week, STI571 50 mg/kg oral daily, gemcitabine 50 mg/kg i.p. twice weekly, 4 weeks, killed day 49, n=10
Description: Animals and Orthotopic Implantation of Tumor Cells. Male athymic nude mice (NCI-nu) are purchased from the Animal Production Area of the National Cancer Institute Frederick Cancer Research and Development Center (Frederick, Md.). The mice are housed and maintained under specific pathogen-free conditions. The mice are used when they are 8 to 12 weeks old. To produce pancreatic tumors, L3.6pl cells are harvested from subconfluent cultures by a brief exposure to 0.25% trypsin and 0.02% EDTA. Trypsinization is stopped with medium containing 10% FBS, and the cells are washed once in serum-free medium and resuspended in Hanks' balanced salt solution (HBSS). Only suspensions consisting of single cells with greater than 90% viability are used for injection into the pancreas of nude mice as described previously (Hwang et al. in Clin Cancer Res 2003; 9:6534-44). Treatment of Established Human Pancreatic Carcinoma Tumors Growing in the Pancreas of Athymic Nude Mice. Twenty-one days after the intra-pancreatic injection of 0.5×10^6 viable L3.6pl cells in 50 μl HBSS, the pancreatic tumors reach the size of 5-6-mm. […] All mice are treated for 4 weeks and killed on day 49 of the experiment. Necropsy Procedures and Histological Studies. […] Tumors growing in the pancreas are excised and weighed. For immunohistochemical staining procedures, one part of the tumor tissue is fixed in formalin and embedded in paraffin and the other is embedded in OCT compound (Miles, Inc., Elkhart, Ind.), rapidly frozen in liquid nitrogen, and stored at −70° C. Statistical Analysis. Body weight, tumor weight, PCNA-positive cells, mean vessel density (CD31/PECAM-1), and TUNEL-positive cells are compared using the Mann-Whitney U test. Survival analysis is computed by the Kaplan-Meier method and compared by the Log rank test.

[4] = tested on: L3.6pl human pancreatic cancer cells; assay: Cell proliferation (PCNA) IHC in L3.6pl tumors; format: in vivo; conditions: Median ± S.D., positive cells in 10 random 0.159-mm^2 fields at ×100
Method: (§2) IHC Determination of Proliferating Cell Nuclear Antigen (PCNA), CD31/PECAM-1 (Endothelial Cells) and TUNEL (Apoptosis). Paraffin-embedded tissues are used for IHC identification of proliferating cell nuclear antigen (PCNA). Frozen tissues used for identification of CD31/PECAM-1 are sectioned (8-10 μm), mounted on positively charged slides, and air-dried for 30 min. Frozen sections are fixed in cold acetone (5 min), in acetone/chloroform (v/v; 5 min), and again in acetone (5 min), and washed with PBS. IHC procedures are performed as described previously (Hwang et al. in Clin Cancer Res 2003; 9:6534-44). […] Statistical Analysis. Body weight, tumor weight, PCNA-positive cells, mean vessel density (CD31/PECAM-1), and TUNEL-positive cells are compared using the Mann-Whitney U test. Survival analysis is computed by the Kaplan-Meier method and compared by the Log rank test.

[5] = Body weight of nude mice in the L3.6pl therapy study; format: in vivo; conditions: nude mice with orthotopic L3.6pl tumors; AEE788 50 mg/kg oral 3x/week, STI571 50 mg/kg oral daily, gemcitabine 50 mg/kg i.p. twice weekly; 4 weeks, killed day 49; n=10
Method: Treatment of Established Human Pancreatic Carcinoma Tumors Growing in the Pancreas of Athymic Nude Mice. Twenty-one days after the intra-pancreatic injection of 0.5×10^6 viable L3.6pl cells in 50 μl HBSS, the pancreatic tumors reach the size of 5-6-mm. […] All mice are treated for 4 weeks and killed on day 49 of the experiment.
Necropsy Procedures and Histological Studies. In the first treatment study, the mice are killed on day 49 after tumor cell injection, weighted, and necropsied. Tumors growing in the pancreas are excised and weighed. For immunohistochemical staining procedures, one part of the tumor tissue is fixed in formalin and embedded in paraffin and the other is embedded in OCT compound (Miles, Inc., Elkhart, Ind.), rapidly frozen in liquid nitrogen, and stored at −70° C.
Statistical Analysis. Body weight, tumor weight, PCNA-positive cells, mean vessel density (CD31/PECAM-1), and TUNEL-positive cells are compared using the Mann-Whitney U test. Survival analysis is computed by the Kaplan-Meier method and compared by the Log rank test.

[6] = tested on: L3.6pl human pancreatic cancer cells; assay: Apoptosis (TUNEL) in L3.6pl tumors; format: in vivo; conditions: Median ± S.D.; TUNEL-positive cells in 10 random 0.159-mm^2 fields at ×100
Method: Analysis of apoptotic cells is performed by using a commercially available TUNEL kit (Promega) with the following modifications: Samples are fixed and incubated with an equilibration buffer followed by a reaction buffer (containing nucleotide mix and terminal deoxynucleotidyl transferase enzyme). Immunofluorescence microscopy is performed in a Zeiss Axioplan microscope (Carl Zeiss, Inc., Thornwood, N.Y.) equipped with an HBO 100 mercury lamp, narrow bandpass filters to individually select for green, red, and blue fluorescence (Chroma Technology Corp., Brattleboro, Vt.). Images are captured using a cooled CCD Hamamatsu Orca camera (Hamamatsu Corp., Bridgewater, N.J.) and Image Pro Analysis software (Media Cybernetics, Silver Spring, Md.). Photomontages are prepared using Adobe Photoshop software (Adobe Systems, Inc., San Jose, Calif.). […] Statistical Analysis. Body weight, tumor weight, PCNA-positive cells, mean vessel density (CD31/PECAM-1), and TUNEL-positive cells are compared using the Mann-Whitney U test. Survival analysis is computed by the Kaplan-Meier method and compared by the Log rank test.

Endothelial cells = assay: Mean vessel density (CD31/PECAM-1) in L3.6pl tumors; format: in vivo, nude mice; conditions: Median ± S.D., microvessels in 10 random 0.159-mm^2 fields at ×100
Method: as §2, with “9:6534-44). Control samples exposed to a secondary antibody alone show no specific staining.” for “9:6534-44).”

EGFR [7] = target: T1, EGFR (Mus musculus, UniProt Q01279); assay: Double immunofluorescence CD31/pEGFR on tumor-associated endothelial cells; format: in vivo, nude mice; conditions: double immunofluorescence with CD31
T1 construct: Frozen sections of pancreatic tumors are mounted on slides and fixed; from tissue; host or cells: tumour-associated endothelial cells in L3.6pl tumours of nude mice
T1 sequence (Q01279 25-1210): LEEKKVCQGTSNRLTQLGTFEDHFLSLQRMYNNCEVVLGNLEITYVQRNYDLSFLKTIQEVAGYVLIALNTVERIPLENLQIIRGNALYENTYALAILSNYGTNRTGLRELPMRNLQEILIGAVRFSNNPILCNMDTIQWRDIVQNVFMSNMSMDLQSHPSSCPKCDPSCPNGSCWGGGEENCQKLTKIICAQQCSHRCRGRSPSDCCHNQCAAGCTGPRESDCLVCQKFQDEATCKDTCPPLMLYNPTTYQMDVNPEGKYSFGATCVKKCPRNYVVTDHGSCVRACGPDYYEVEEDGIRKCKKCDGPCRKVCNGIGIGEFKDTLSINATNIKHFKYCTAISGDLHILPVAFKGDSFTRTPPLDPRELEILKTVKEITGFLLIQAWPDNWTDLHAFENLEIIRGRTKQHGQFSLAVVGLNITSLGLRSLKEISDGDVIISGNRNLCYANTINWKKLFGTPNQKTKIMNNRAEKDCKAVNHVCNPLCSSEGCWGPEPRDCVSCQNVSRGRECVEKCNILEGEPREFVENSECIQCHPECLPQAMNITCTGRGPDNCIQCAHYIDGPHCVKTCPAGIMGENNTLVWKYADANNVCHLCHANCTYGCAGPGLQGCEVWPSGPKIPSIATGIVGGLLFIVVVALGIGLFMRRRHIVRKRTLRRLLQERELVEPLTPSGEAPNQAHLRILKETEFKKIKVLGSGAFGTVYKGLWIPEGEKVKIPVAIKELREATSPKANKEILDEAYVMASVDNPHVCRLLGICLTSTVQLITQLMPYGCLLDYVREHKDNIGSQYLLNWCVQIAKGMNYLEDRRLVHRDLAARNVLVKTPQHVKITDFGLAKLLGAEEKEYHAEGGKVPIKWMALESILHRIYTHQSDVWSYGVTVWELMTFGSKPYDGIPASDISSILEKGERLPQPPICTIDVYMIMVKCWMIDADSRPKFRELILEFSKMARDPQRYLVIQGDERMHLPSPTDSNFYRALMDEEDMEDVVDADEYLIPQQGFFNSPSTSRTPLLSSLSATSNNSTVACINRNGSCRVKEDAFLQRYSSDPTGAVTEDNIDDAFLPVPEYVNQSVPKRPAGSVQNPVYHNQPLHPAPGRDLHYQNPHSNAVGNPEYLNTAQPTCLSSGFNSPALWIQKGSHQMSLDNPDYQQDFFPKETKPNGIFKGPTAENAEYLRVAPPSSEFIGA

VEGFR [8] = target: T2, VEGFR (Mus musculus, UniProt P35918); assay: Double immunofluorescence CD31/pVEGFR on tumor-associated endothelial cells; format: in vivo, nude mice; conditions: double immunofluorescence with CD31
T2 construct: Frozen sections of pancreatic tumors are mounted on slides and fixed; from tissue; host or cells: tumour-associated endothelial cells in L3.6pl tumours of nude mice
T2 sequence (P35918 20-1345): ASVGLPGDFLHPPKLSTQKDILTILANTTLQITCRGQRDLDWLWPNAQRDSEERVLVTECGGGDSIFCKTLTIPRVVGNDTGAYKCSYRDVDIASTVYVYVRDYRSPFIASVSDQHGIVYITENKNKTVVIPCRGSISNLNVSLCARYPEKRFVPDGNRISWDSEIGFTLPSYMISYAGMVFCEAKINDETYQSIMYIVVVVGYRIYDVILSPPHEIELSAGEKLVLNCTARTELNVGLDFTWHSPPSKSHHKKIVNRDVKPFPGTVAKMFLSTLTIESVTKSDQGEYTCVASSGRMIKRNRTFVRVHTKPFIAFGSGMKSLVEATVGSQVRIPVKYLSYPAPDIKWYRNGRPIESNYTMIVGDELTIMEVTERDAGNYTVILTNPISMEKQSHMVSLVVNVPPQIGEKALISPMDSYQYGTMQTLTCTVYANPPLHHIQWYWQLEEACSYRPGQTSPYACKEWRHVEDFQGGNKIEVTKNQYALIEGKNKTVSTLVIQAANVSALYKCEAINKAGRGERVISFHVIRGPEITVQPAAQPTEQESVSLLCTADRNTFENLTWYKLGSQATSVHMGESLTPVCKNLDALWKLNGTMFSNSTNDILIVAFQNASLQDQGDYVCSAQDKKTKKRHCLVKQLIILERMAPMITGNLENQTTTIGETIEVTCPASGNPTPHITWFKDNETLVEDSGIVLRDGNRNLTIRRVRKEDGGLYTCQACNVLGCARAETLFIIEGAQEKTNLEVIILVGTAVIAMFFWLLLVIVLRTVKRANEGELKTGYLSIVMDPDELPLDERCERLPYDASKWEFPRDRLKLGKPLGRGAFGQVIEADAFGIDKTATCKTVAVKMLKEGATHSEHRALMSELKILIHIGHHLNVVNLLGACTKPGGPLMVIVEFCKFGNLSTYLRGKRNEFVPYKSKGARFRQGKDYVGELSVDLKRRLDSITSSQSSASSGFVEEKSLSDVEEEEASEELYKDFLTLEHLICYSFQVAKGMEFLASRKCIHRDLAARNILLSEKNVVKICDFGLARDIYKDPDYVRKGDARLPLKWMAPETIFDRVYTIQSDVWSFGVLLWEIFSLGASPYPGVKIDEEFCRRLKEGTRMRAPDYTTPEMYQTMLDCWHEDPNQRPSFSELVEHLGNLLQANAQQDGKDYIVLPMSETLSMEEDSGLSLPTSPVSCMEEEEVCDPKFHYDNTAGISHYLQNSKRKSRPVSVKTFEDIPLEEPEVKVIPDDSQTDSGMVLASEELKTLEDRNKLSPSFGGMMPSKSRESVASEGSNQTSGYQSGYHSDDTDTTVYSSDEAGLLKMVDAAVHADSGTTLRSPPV

VEGFR [9] = assay: IHC analysis of phosphorylated VEGFR in L3.6pl pancreatic tumors; format: in vivo, human; conditions: IHC of pancreatic tumors from treated mice
Description: as §1, with “After 1 h incubation at room temperature with peroxidase-conjugated secondary antibody, positive reaction is detected by exposure to stable 3,3′-diaminobenzidine (DAB) (Phoenix Biotechnologies, Huntsville, Ala.).” left out

EGFR [10] = target: T3, EGFR (Homo sapiens, UniProt P00533); assay: IHC analysis of phosphorylated EGFR in L3.6pl pancreatic tumors; format: in vivo; conditions: IHC of pancreatic tumors from treated mice
T3 construct: Paraffin-embedded pancreatic tumors of mice from all treatment groups are immunostained; from tissue; host or cells: L3.6pl orthotopic pancreatic tumours grown in nude mice
T3 sequence (P00533 25-1210): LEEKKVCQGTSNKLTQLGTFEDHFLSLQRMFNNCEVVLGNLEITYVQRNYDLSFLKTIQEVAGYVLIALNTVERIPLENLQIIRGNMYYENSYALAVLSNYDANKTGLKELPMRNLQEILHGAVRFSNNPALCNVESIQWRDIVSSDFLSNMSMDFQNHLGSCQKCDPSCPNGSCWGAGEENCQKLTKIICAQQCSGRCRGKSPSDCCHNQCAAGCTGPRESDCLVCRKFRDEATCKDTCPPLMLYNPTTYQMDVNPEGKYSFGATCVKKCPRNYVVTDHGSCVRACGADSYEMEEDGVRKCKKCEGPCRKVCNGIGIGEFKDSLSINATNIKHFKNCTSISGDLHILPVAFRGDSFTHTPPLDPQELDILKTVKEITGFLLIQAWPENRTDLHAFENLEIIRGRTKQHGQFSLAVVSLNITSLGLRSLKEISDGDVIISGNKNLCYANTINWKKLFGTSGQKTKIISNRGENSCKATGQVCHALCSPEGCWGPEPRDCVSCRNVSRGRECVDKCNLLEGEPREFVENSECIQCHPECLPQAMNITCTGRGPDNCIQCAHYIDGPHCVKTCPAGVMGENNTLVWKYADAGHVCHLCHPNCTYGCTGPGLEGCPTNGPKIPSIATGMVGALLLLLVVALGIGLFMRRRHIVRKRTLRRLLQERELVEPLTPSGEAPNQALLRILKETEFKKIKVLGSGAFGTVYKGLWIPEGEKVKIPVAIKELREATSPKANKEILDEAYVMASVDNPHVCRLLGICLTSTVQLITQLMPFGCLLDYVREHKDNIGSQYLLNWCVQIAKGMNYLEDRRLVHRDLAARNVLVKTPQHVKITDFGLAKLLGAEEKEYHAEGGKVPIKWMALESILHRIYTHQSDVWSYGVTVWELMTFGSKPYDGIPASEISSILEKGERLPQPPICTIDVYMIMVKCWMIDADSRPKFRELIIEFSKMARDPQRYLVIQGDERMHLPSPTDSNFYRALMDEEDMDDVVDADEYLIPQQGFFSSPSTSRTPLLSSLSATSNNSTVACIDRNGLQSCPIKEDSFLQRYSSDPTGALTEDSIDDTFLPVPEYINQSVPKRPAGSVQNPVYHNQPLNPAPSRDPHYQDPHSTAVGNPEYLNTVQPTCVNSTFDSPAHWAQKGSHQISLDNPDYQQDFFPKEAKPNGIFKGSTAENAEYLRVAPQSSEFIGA
Description: as §1, with “After 1 h incubation at room temperature with peroxidase-conjugated secondary antibody, positive reaction is detected by exposure to stable 3,3′-diaminobenzidine (DAB) (Phoenix Biotechnologies, Huntsville, Ala.).” left out

PDGFRβ [11] = assay: IHC analysis of phosphorylated PDGFRβ in L3.6pl pancreatic tumors; format: in vivo, human; conditions: IHC of pancreatic tumors from treated mice
Description: as §1, with “After 1 h incubation at room temperature with peroxidase-conjugated secondary antibody, positive reaction is detected by exposure to stable 3,3′-diaminobenzidine (DAB) (Phoenix Biotechnologies, Huntsville, Ala.).” left out

[12] = tested on: tumor-associated endothelial cells; assay: Pericyte (desmin) coverage on tumor-associated endothelial cells; format: in vivo, nude mice; conditions: desmin-positive cells in contact with CD31-positive cells
Method: Double Immunofluorescence Staining for CD31/PECAM-1 and EGFR, pEGFR, VEGFR, pVEGFR, PDGFRβ, pPDGFRβ, Pericytes (desmin-positive cells), and TUNEL. Frozen sections of pancreatic tumors are mounted on slides and fixed. Immunofluorescence for CD31 is performed using Alexa594 conjugated secondary antibody, and samples are again blocked briefly in a blocking solution (5% normal horse serum and 1% normal goat serum in PBS) as described above and incubated with antibody against human EGFR, pEGFR, VEGFR, pVEGFR, PDGFRβ, pPDGFRβ, or desmin at 4° C. overnight. After washes and blocking with blocking solution, samples are incubated with Alexa488 conjugated secondary antibody. Endothelial cells are identified by red fluorescence, and EGF-R, pEGFR, VEGFR, pVEGFR, PDGFRβ, pPDGFRβ and desmin positive cells (pericytes) are identified by green fluorescence. The presence of growth factor receptors and phosphorylated receptors on endothelial cells are detected by colocalization of red and green fluorescence, which appeared yellow. The coverage of pericytes on endothelial cells is determined by counting CD31 positive cells in direct contact with desmin-positive cells and CD31-positive cells without direct association with desmin-positive cells in five randomly selected microscopic fields.

PDGFRβ [13] = target: T4, PDGFRβ (Mus musculus, UniProt P05622); assay: Double immunofluorescence CD31/pPDGFRβ on tumor-associated endothelial cells; format: in vivo, nude mice; conditions: double immunofluorescence with CD31
T4 construct: Frozen sections of pancreatic tumors are mounted on slides and fixed; from tissue; host or cells: tumour-associated endothelial cells in L3.6pl tumours of nude mice
T4 sequence (P05622 32-1098): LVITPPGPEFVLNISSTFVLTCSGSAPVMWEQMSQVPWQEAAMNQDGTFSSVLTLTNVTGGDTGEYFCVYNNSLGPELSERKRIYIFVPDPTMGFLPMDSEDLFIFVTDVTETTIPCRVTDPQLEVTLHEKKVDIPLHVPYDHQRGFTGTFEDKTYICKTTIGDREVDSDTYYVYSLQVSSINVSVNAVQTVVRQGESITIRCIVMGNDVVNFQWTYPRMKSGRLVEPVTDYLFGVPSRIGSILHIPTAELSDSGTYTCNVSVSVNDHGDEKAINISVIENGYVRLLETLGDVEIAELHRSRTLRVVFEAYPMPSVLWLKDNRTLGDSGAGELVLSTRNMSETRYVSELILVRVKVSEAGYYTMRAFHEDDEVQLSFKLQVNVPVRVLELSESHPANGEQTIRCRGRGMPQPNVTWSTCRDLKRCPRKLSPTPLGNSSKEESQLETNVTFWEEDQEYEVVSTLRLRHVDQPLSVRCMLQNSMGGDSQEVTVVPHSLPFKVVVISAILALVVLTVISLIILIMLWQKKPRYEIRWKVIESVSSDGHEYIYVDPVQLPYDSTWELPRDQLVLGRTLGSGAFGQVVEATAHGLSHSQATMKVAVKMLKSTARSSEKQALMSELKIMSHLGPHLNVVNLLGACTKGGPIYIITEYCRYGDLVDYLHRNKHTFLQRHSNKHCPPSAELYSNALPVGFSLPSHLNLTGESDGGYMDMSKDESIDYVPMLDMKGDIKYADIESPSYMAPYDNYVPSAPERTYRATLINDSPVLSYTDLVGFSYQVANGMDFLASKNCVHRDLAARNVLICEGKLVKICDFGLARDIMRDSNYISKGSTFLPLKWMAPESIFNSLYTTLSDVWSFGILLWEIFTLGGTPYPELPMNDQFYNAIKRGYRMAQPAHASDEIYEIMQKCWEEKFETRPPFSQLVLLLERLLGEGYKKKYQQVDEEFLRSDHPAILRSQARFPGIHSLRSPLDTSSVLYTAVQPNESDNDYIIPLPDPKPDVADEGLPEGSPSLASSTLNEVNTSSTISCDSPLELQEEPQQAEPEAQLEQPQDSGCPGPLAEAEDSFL

[14] = listed as {6-[4-(4-ethyl-piperazin-1-ylmethyl)-phenyl]-7H-pyrrolo[2,3-d]pyrimidin-4-yl}-(1)

SMILES | expression level of EGF, VEGF, PDGF-BB, EGFR, VEGFR, and PDGFR by the tumor cells or in the stroma cells [1] | Endothelial cells TUNEL+ (%) [2] | effect on tumor growth (in words) [3] | Tumor weight (g) Median [3] [g] | Tumor cells PCNA (number of PCNA-positive cells) [4] | Tumor cells PCNA (number of PCNA-positive cells) ([4]; listed as gemcitabine) | Body weight(g) Median [5] [g] | Tumor cells TUNEL (number of apoptotic tumor cells) [6] | Endothelial cells CD31 (mean vessel density) (Endothelial cells) | Endothelial cells CD31 (mean vessel density) (Endothelial cells; listed as gemcitabine) | phosphorylation of EGFR on tumor-associated endothelial cells (EGFR [7]) | phosphorylation of VEGFR on tumor-associated endothelial cells (VEGFR [8]) | phosphorylation of VEGFR in tumors (VEGFR [9]) | phosphorylation of VEGFR in tumors (VEGFR [9]; [14]) | phosphorylation of EGFR in tumors (EGFR [10]) | phosphorylation of EGFR in tumors (EGFR [10]; [14]) | phosphorylation of PDGFRβ in tumors (PDGFRβ [11]) | pericyte coverage on tumor-associated endothelial cells [12] | phosphorylation of PDGFRβ on tumor-associated endothelial cells (PDGFRβ [13])
Nc1ccn([C@@H]2O[C@H](CO)[C@@H](O)C2(F)F)c(=O)n1 [Gemcitabine] | do not alter the expression level | 1 ± 1% | does not inhibit tumor growth | 0.78 | 305 ± 71 | decreases the number of dividing PCNA-positive cells | 25.7 | 8 ± 3^f | 38 ± 7 | does not decrease MVD | – | – | – | – | – | – | – | – | –
CCN1CCN(Cc2ccc(-c3cc4c(N[C@H](C)c5ccccc5)ncnc4[nH]3)cc2)CC1 [AEE788] | do not alter the expression level | 3 ± 3^e % | – | 0.33 | 233 ± 54^e | – | 26.2 | 14 ± 4^f | 25 ± 5^d | – | diminished | diminished | significantly reduced | decreases phosphorylation | significantly reduced | decreases phosphorylation | – | – | –
Cc1ccc(NC(=O)c2ccc(CN3CCN(C)CC3)cc2)cc1Nc1nccc(-c2cccnc2)n1 [STI571, N-{5-[4-(4-methyl-piperazino-methyl)-benzoylamido]-2-methylphenyl}-4-(3-pyridyl)-2-pyrimidine-amine] | do not alter the expression level | 0 ± 0% | does not inhibit tumor growth | 0.96 | – | – | – | 6 ± 2 | – | – | – | – | – | – | – | – | inhibited | decreases pericyte coverage | decreased
